As usually defined, the IC50 is the concentration needed to halve the response being measured. The low end stands for greater potency in that assay, the high end for weaker potency in that assay.

This note sets out measurements from ChEMBL document CHEMBL3763154, “Dispirocyclopropyldehydrocostus lactone selectively inhibits acute myelogenous leukemia cells” (Bioorg Med Chem Lett, 2016).

In one data set the test system is K562. The data set is described as follows: Cytotoxicity against human K562 cells after 72 hrs by MTT assay. The data set is classed as functional, cell-based. To be noted: K562, 72 h. (Tetrazolium assays rely on reduction of a dye to a coloured formazan, in cell work by metabolically active cells.)
Data set [1] in a line: Cytotoxicity against human K562/A02 cells after 72 hrs by MTT assay. The settings on record: K562/A02, 72 h. Type of data set: functional, cell-based.
A short description of data set [2]: Cytotoxicity against human HL60 cells after 72 hrs by MTT assay. The data set is classed as functional, cell-based. To be noted: HL-60, 72 h.
Data set [3] can be described thus: Cytotoxicity against human HL60/ADR cells after 72 hrs by MTT assay. The data set is classed as functional, cell-based.
Data set [4] in a line: Cytotoxicity against human KG1a cells after 72 hrs by MTT assay. To be noted: KG-1a. The data set is classed as functional, cell-based.
Data set [5] is described as follows: Cytotoxicity against human hematopoietic stem cells after 24 hrs by MTT assay. The data set is classed as cell-based.
Data set [6] can be described thus: Cytotoxicity against human AML cells assessed as cell viability at 5 uM after 18 hrs by annexin staining based assay. The data set is classed as functional. The settings on record: read-out: Activity.
Data set [7] in a line: Cytotoxicity against human CD34-positive leukemia stem/progenitor AML cells assessed as cell viability at 5 uM after 18 hrs by annexin staining based assay. Type of data set: functional. To be noted: read-out: Activity.
Data set [8] can be described thus: Cytotoxicity against human CD38 deficient CD34-positive leukemia stem/progenitor AML cells assessed as cell viability at 5 uM after 18 hrs by annexin staining based assay. The data set is classed as functional. To be noted: read-out: Activity.
Data set [9] can be described thus: Cytotoxicity against human AML cells assessed as cell viability at 10 uM after 18 hrs by annexin staining based assay. The settings on record: read-out: Activity. The data set is classed as functional.
The nature of data set [10]: Cytotoxicity against human CD34-positive leukemia stem/progenitor AML cells assessed as cell viability at 10 uM after 18 hrs by annexin staining based assay. The data set is classed as functional. To be noted: read-out: Activity.
A short description of data set [11]: Cytotoxicity against human CD38 deficient CD34-positive leukemia stem/progenitor AML cells assessed as cell viability at 10 uM after 18 hrs by annexin staining based assay. Type of data set: functional. The settings on record: read-out: Activity.
In data set [12] the test system is KG-1a. Put plainly: Induction of apoptosis in human KG1a cells assessed as viable cells at 5 uM after 24 hrs by Annexin V-FITC/PI staining based flow cytometry (Rvb=95.1%). Type of data set: functional. To be noted: read-out: Activity. In general terms: In flow cytometry, cells or beads pass a laser one at a time.
In data set [13] the test system is KG-1a. Put plainly: Induction of apoptosis in human KG1a cells assessed as viable cells at 10 uM after 24 hrs by Annexin V-FITC/PI staining based flow cytometry (Rvb=95.1%). The data set is classed as functional. To be noted: read-out: Activity.
In data set [14] the test system is KG-1a. Put plainly: Induction of apoptosis in human KG1a cells assessed as viable cells at 20 uM after 24 hrs by Annexin V-FITC/PI staining based flow cytometry (Rvb=95.1%). The data set is classed as functional. To be noted: read-out: Activity.
Data set [15] concerns KG-1a. The data set is described as follows: Induction of apoptosis in human KG1a cells assessed as viable cells at 50 uM after 24 hrs by Annexin V-FITC/PI staining based flow cytometry (Rvb=95.1%). The data set is classed as functional. The settings on record: read-out: Activity.
The subject of data set [16] is KG-1a. The data set is described as follows: Induction of apoptosis in human KG1a cells assessed as early apoptotic cells at 5 uM after 24 hrs by Annexin V-FITC/PI staining based flow cytometry (Rvb=2.40%). The data set is classed as functional.
For data set [17], the system named is KG-1a. Put plainly: Induction of apoptosis in human KG1a cells assessed as early apoptotic cells at 10 uM after 24 hrs by Annexin V-FITC/PI staining based flow cytometry (Rvb=2.40%). Type of data set: functional.
The test system of data set [18] is KG-1a. Put plainly: Induction of apoptosis in human KG1a cells assessed as early apoptotic cells at 20 uM after 24 hrs by Annexin V-FITC/PI staining based flow cytometry (Rvb=2.40%). The data set is classed as functional.
Data set [19] relates to KG-1a. The data set is described as follows: Induction of apoptosis in human KG1a cells assessed as early apoptotic cells at 50 uM after 24 hrs by Annexin V-FITC/PI staining based flow cytometry (Rvb=2.40%). The data set is classed as functional.
For data set [20], the system named is KG-1a. Put plainly: Induction of apoptosis in human KG1a cells assessed as late apoptotic cells at 5 uM after 24 hrs by Annexin V-FITC/PI staining based flow cytometry (Rvb=2.30%). Type of data set: functional.
Data set [21] relates to KG-1a. Put plainly: Induction of apoptosis in human KG1a cells assessed as late apoptotic cells at 10 uM after 24 hrs by Annexin V-FITC/PI staining based flow cytometry (Rvb=2.30%). The data set is classed as functional.
Data set [22] deals with KG-1a. Put plainly: Induction of apoptosis in human KG1a cells assessed as late apoptotic cells at 20 uM after 24 hrs by Annexin V-FITC/PI staining based flow cytometry (Rvb=2.30%). The data set is classed as functional.
The subject of data set [23] is KG-1a. The data set is described as follows: Induction of apoptosis in human KG1a cells assessed as late apoptotic cells at 50 uM after 24 hrs by Annexin V-FITC/PI staining based flow cytometry (Rvb=2.30%). The data set is classed as functional.
Data set [24] relates to KG-1a. Put plainly: Induction of apoptosis in human KG1a cells assessed as necrotic cells at 5 uM after 24 hrs by Annexin V-FITC/PI staining based flow cytometry (Rvb=0.227%). The data set is classed as functional.
Data set [25] deals with KG-1a. Put plainly: Induction of apoptosis in human KG1a cells assessed as necrotic cells at 10 uM after 24 hrs by Annexin V-FITC/PI staining based flow cytometry (Rvb=0.227%). Type of data set: functional.
The test system of data set [26] is KG-1a. Put plainly: Induction of apoptosis in human KG1a cells assessed as necrotic cells at 20 uM after 24 hrs by Annexin V-FITC/PI staining based flow cytometry (Rvb=0.227%). The data set is classed as functional.
Data set [27] has as its system KG-1a. Put plainly: Induction of apoptosis in human KG1a cells assessed as necrotic cells at 50 uM after 24 hrs by Annexin V-FITC/PI staining based flow cytometry (Rvb=0.227%). The data set is classed as functional.
The nature of data set [28]: Induction of apoptosis in human KG1a cells assessed as upregulation of Bax expression at 2.5 to 10 uM after 24 hrs by Western blot analysis. The data set is classed as functional, cell-based. The settings on record: KG-1a. (In western blotting, separated proteins are transferred to a membrane and probed.)
The nature of data set [29]: Induction of apoptosis in human KG1a cells assessed as upregulation of caspase 3 cleavage at 2.5 to 10 uM after 24 hrs by Western blot analysis. The data set is classed as functional, cell-based. To be noted: KG-1a.
A short description of data set [30]: Induction of apoptosis in human KG1a cells assessed as upregulation of caspase 9 cleavage at 2.5 to 10 uM after 24 hrs by Western blot analysis. Type of data set: functional, cell-based. The settings on record: KG-1a.
Data set [31] can be described thus: Induction of apoptosis in human KG1a cells assessed as upregulation of PARP cleavage at 2.5 to 10 uM after 24 hrs by Western blot analysis. To be noted: KG-1a. The data set is classed as functional, cell-based.
Data set [32] can be described thus: Aqueous solubility of compound. The data set is classed as physicochemical. To be noted: buffer.
For the next data set, the system named is HL-60. The data set is described as follows: Selectivity index, ratio IC50 for human […] cells. Type of data set: functional.
Data set [33] can be described thus: Selectivity index, ratio IC50 for human KG1a cells to IC50 for human HL60 cells. The data set is classed as functional.
Data set [34] concerns KG-1a. Put plainly: Antitumor activity against human KG1a cells xenografted in SCID mice assessed as inhibition of tumor growth at 50 mg/kg, po administered every other day for 7 times. Type of data set: functional, organism-based.
In data set [35] the test system is KG-1a. The data set is described as follows: Antitumor activity against human KG1a cells xenografted in SCID mice assessed as reduction in tumor weight at 50 mg/kg, po administered every other day for 7 times measured after 1 month. Type of data set: functional, organism-based.
The next data set relates to Mus musculus. Put plainly: Toxicity in SCID mouse xenografted with KG1a cells assessed as effect on body weight at 50 mg/kg, po administered every other day for 7 times. Type of data set: organism-based. The settings on record: in vivo.

Calls of active or inactive are those of the source. No cut-off for these calls is given here.

As to `C=C1CC[C@H]2C(=C)CC[C@H]3C(=C)C(=O)O[C@@H]3[C@@H]12` [DEHYDROCOSTUSLACTONE], the IC50 in the data set on K562 was 5.3 µM; in data set [1], 6.6 µM; in data set [2], 3.7 µM; in [3] it was 5.1 µM; in data set [4], 10.5 µM.

In the case of `C=C1C(=O)O[C@@H]2[C@@H]3[C@@H](CCC34CC4)C3(CC[C@@H]12)CC3`, the IC50 in the data set with K562 was 7 µM; in data set [1] it was 7.7 µM; in data set [2], 5.7 µM; in data set [3], 6.7 µM; in data set [4], 7.6 µM; in data set [5], over 50 µM. For the same molecule, the viability at 5 µM in data set [6] was 50.7%; in data set [7], 42.2%; in data set [8] it was 24.2%; in the data set with KG-1a [12], 82.5%. For the same molecule, the viability at 10 µM in [9] came to 6.5%; in [10] it was 1.9%; in [11], 0.46%; with KG-1a [13] it was 66.5%. Further, the viability at 20 µM in the data set with KG-1a [14] was 2%. The viability at 50 µM in the data set on KG-1a [15] came to 1.32%. Besides, the Activity came out at 6.54% in the data set on KG-1a [16]; 23.3% in the data set with KG-1a [17]; 49.9% in the data set with KG-1a [18]; 45% in the data set on KG-1a [19]; 3.51% in the data set on KG-1a [20]; 9.13% with KG-1a [21]. Besides, the Activity in the data set on KG-1a [22] amounted to 44.4%; with KG-1a [23], 49%; in the data set on KG-1a [24], 0.21%; with KG-1a [25] it was 1.05%; in the data set on KG-1a [26], 3.05%; in the data set with KG-1a [27], 4.71%. The result in data set [28], in data set [29], in data set [30] and in data set [31] was Active. Moreover, the solubility entry in [32] is listed as “Insoluble”.

Regarding `COc1cccc2c1C(=O)c1c(O)c3c(c(O)c1C2=O)C[C@@](O)(C(=O)CO)C[C@@H]3O[C@H]1C[C@H](N)[C@H](O)[C@H](C)O1.Cl` [DOXORUBICIN HYDROCHLORIDE], the IC50 stood at 10.6 µM in data set [1], 0.016 µM in data set [2], 4.89 µM in data set [3] and 0.82 µM in data set [4]. Also, the “Ratio IC50” value was determined as 300 in the data set with HL-60 and 50 in data set [33].

With `CN(C)C[C@@H]1C(=O)O[C@H]2[C@H]1CCC1(CC1)[C@@H]1CCC3(CC3)[C@H]21.O=C(O)/C=C/C(=O)O`, in the data set on KG-1a [34], the TGI entry was “Active”. The result in the data set on KG-1a [35] was Active. For the same molecule, the Activity result in the data set with Mus musculus is “Non-toxic”.
